From patent US12052991B2, “Substituted pyridinyloxybenzenes and salts thereof and use thereof as herbicidal agents” (Bayer Aktiengesellschaft, priority 2018, dated 2024)

Columns and labels:
Type in all cases: in vivo
[1] = tested on: harmful plants ABUTH, AMARE, ECHCG, LOLRI, MATIN, POAAN, SETVI, STEME, ALOMY, DIGSA, KCHSC and VERPE; assay: Herbicidal pre-emergence action (test C), summary of Tables C1-C12; settings: application rate of 1280 or 320 g of active ingredient per hectare; summary in words
Source text: (§1) Seeds of mono- and dicotyledonous weed plants were placed in plastic pots in sandy loam soil (doubly sown with one species each of mono- or dicotyledonous weed plants per pot) and covered with soil. The compounds of the invention, formulated in the form of wettable powders (WP) or as emulsion concentrates (EC), were then applied onto the surface of the covering soil as aqueous suspension or emulsion with addition of 0.5% additive at a water application rate of 600 liters per hectare (converted). After the treatment, the pots were placed in a greenhouse and kept under good growth conditions for the test plants. After about 3 weeks, the effect of the preparations was scored visually in comparison with untreated controls as percentages.
(§2) For example, 100% activity=the plants have died, 0% activity=like control plants.
Tables C1 to C12 below show the effects of selected compounds of the general formula (I) according to Table 1 on various harmful plants and an application rate corresponding to 1280 or 320 g/ha, which were obtained by the experimental procedure mentioned above.
As the results of Tables C1-C12 show, compounds no.

[2] = tested on: harmful plants ABUTH, AMARE, ECHCG, LOLRI, MATIN, POAAN, SETVI, STEME, ALOMY, DIGSA, KCHSC and VERPE; assay: Herbicidal post-emergence action, summary of Tables B1-B12; settings: application rate of 1280 or 320 g of active ingredient per hectare; summary in words
Method: (§3) Seeds of mono- and dicotyledonous weed plants were placed in plastic pots in sandy loam soil (doubly sown with in each case one species of mono- or dicotyledonous weed plants per pot), covered with soil and cultivated in a greenhouse under controlled growth conditions. 2 to 3 weeks after sowing, the test plants were treated at the one-leaf stage. The compounds of the invention, formulated in the form of wettable powders (WP) or as emulsion concentrates (EC), were applied onto the green parts of the plants as aqueous suspension or emulsion with addition of 0.5% additive at a water application rate of 600 liters per hectare (converted). After the test plants had been kept in the greenhouse under optimum growth conditions for about 3 weeks, the activity of the preparations was rated visually in comparison to untreated controls.
as §2
Tables B1 to B12 below show the effects of selected compounds of the general formula (I) according to Table 1 on various harmful plants and an application rate corresponding to 1280 or 320 g/ha, which were obtained by the experimental procedure mentioned above.
As the results of Tables B1-B12 show, compounds no.

[3] = tested on: Abutilon theophrasti (ABUTH); assay: Herbicidal pre-emergence action, test C (Table C5); settings: visual scoring after about 3 weeks, 100% = plants have died, 0% = like control plants
Source text: as §1, with “percentages. For example, 100% activity=the plants have died, 0% activity=like control plants. Tables C1 to C12 below show the effects of selected compounds of the general formula (I) according to Table 1 on various harmful plants and an application rate corresponding to 1280 or 320 g/ha, which were obtained by the experimental procedure mentioned above.” for “percentages.”

[4] = tested on: Abutilon theophrasti (ABUTH); assay: Herbicidal post-emergence action (Table B5); settings: rated visually after about 3 weeks, 100% = plants have died, 0% = like control plants
Method: as §3, with “controls. For example, 100% activity=the plants have died, 0% activity=like control plants. Tables B1 to B12 below show the effects of selected compounds of the general formula (I) according to Table 1 on various harmful plants and an application rate corresponding to 1280 or 320 g/ha, which were obtained by the experimental procedure mentioned above.” for “controls.”

[5] = tested on: Matricaria inodora (MATIN); assay: Herbicidal pre-emergence action, test C (Table C7); settings: dosage 1280 g/ha; visual scoring after about 3 weeks; 100% = plants have died, 0% = like control plants
Source text: as §1, with “percentages. For example, 100% activity=the plants have died, 0% activity=like control plants. Tables C1 to C12 below show the effects of selected compounds of the general formula (I) according to Table 1 on various harmful plants and an application rate corresponding to 1280 or 320 g/ha, which were obtained by the experimental procedure mentioned above.” for “percentages.”

Poa annua (POAAN) [6] = assay: Herbicidal pre-emergence action, test C (Table C3); settings: visual scoring after about 3 weeks, 100% = plants have died, 0% = like control plants
Source text: as §1, with “percentages. For example, 100% activity=the plants have died, 0% activity=like control plants. Tables C1 to C12 below show the effects of selected compounds of the general formula (I) according to Table 1 on various harmful plants and an application rate corresponding to 1280 or 320 g/ha, which were obtained by the experimental procedure mentioned above.” for “percentages.”

[7] = tested on: Amaranthus retroflexus (AMARE); assay: Herbicidal post-emergence action (Table B6); settings: visual rating about 3 weeks after treatment, 100% = plants have died, 0% = like control plants
Method: as §3, with “controls. For example, 100% activity=the plants have died, 0% activity=like control plants. Tables B1 to B12 below show the effects of selected compounds of the general formula (I) according to Table 1 on various harmful plants and an application rate corresponding to 1280 or 320 g/ha, which were obtained by the experimental procedure mentioned above.” for “controls.”

Stellaria media (STEME) [8] = assay: Herbicidal post-emergence action (Table B8); settings: visual rating about 3 weeks after treatment, 100% = plants have died, 0% = like control plants
Method: as §3, with “controls. For example, 100% activity=the plants have died, 0% activity=like control plants. Tables B1 to B12 below show the effects of selected compounds of the general formula (I) according to Table 1 on various harmful plants and an application rate corresponding to 1280 or 320 g/ha, which were obtained by the experimental procedure mentioned above.” for “controls.”

[9] = tested on: Amaranthus retroflexus (AMARE); assay: Herbicidal pre-emergence action, test C (Table C6); settings: visual scoring after about 3 weeks, 100% = plants have died, 0% = like control plants
Source text: as §1, with “percentages. For example, 100% activity=the plants have died, 0% activity=like control plants. Tables C1 to C12 below show the effects of selected compounds of the general formula (I) according to Table 1 on various harmful plants and an application rate corresponding to 1280 or 320 g/ha, which were obtained by the experimental procedure mentioned above.” for “percentages.”

Setaria viridis (SETVI) = assay: Herbicidal pre-emergence action, test C (Table C4); settings: visual scoring after about 3 weeks, 100% = plants have died, 0% = like control plants
Source text: as §1, with “percentages. For example, 100% activity=the plants have died, 0% activity=like control plants. Tables C1 to C12 below show the effects of selected compounds of the general formula (I) according to Table 1 on various harmful plants and an application rate corresponding to 1280 or 320 g/ha, which were obtained by the experimental procedure mentioned above.” for “percentages.”

Stellaria media (STEME) [10] = assay: Herbicidal pre-emergence action, test C (Table C8); settings: visual scoring after about 3 weeks, 100% = plants have died, 0% = like control plants
Source text: as §1, with “percentages. For example, 100% activity=the plants have died, 0% activity=like control plants. Tables C1 to C12 below show the effects of selected compounds of the general formula (I) according to Table 1 on various harmful plants and an application rate corresponding to 1280 or 320 g/ha, which were obtained by the experimental procedure mentioned above.” for “percentages.”

Poa annua (POAAN) [11] = assay: Herbicidal post-emergence action (Table B3); settings: rated visually after about 3 weeks, 100% = plants have died, 0% = like control plants
Method: as §3, with “controls. For example, 100% activity=the plants have died, 0% activity=like control plants. Tables B1 to B12 below show the effects of selected compounds of the general formula (I) according to Table 1 on various harmful plants and an application rate corresponding to 1280 or 320 g/ha, which were obtained by the experimental procedure mentioned above.” for “controls.”

Veronica persica (VERPE) [12] = assay: Herbicidal post-emergence action (Table B12); settings: visual rating about 3 weeks after treatment, 100% = plants have died, 0% = like control plants
Method: as §3, with “controls. For example, 100% activity=the plants have died, 0% activity=like control plants. Tables B1 to B12 below show the effects of selected compounds of the general formula (I) according to Table 1 on various harmful plants and an application rate corresponding to 1280 or 320 g/ha, which were obtained by the experimental procedure mentioned above.” for “controls.”

Veronica persica (VERPE) [13] = assay: Herbicidal pre-emergence action, test C (Table C12); settings: dosage 1280 g/ha, visual scoring vs untreated controls
Source text: as §1, with “percentages. For example, 100% activity=the plants have died, 0% activity=like control plants. Tables C1 to C12 below show the effects of selected compounds of the general formula (I) according to Table 1 on various harmful plants and an application rate corresponding to 1280 or 320 g/ha, which were obtained by the experimental procedure mentioned above.” for “percentages.”

[14] = tested on: Digitaria sanguinalis (DIGSA); assay: Herbicidal pre-emergence action, test C (Table C10); settings: dosage 1280 g/ha; visual scoring after about 3 weeks; 100% = plants have died, 0% = like control plants
Source text: as §1, with “percentages. For example, 100% activity=the plants have died, 0% activity=like control plants. Tables C1 to C12 below show the effects of selected compounds of the general formula (I) according to Table 1 on various harmful plants and an application rate corresponding to 1280 or 320 g/ha, which were obtained by the experimental procedure mentioned above.” for “percentages.”

Row | Structure (SMILES) | herbicidal activity against the harmful plants of Tables C1-C12 in pre-emergence treatment [1] | herbicidal activity against the harmful plants of Tables B1-B12 in post-emergence treatment [2] | Pre-emergence action against Abutilon theophrasti (ABUTH) ([3]; dosage 1280 g/ha) [%] | Post-emergence action against Abutilon theophrasti (ABUTH) ([4]; 1280 g/ha) [%] | Pre-emergence action against Poa annua (POAAN) (Poa annua (POAAN) [6]; dosage 1280 g/ha) [%] | Post-emergence action against Amaranthus retroflexus (AMARE) ([7]; dosage 320 g/ha) [%] | Post-emergence action against Amaranthus retroflexus (AMARE) ([7]; dosage 1280 g/ha) [%] | Post-emergence action against Stellaria media (STEME) (Stellaria media (STEME) [8]; dosage 1280 g/ha) [%] | Pre-emergence action against Amaranthus retroflexus (AMARE) ([9]; dosage 320 g/ha) [%] | Pre-emergence action against Amaranthus retroflexus (AMARE) ([9]; dosage 1280 g/ha) [%] | Pre-emergence action against Setaria viridis (SETVI) (Setaria viridis (SETVI); dosage 1280 g/ha) [%] | Pre-emergence action against Stellaria media (STEME) (Stellaria media (STEME) [10]; dosage 320 g/ha) [%] | Pre-emergence action against Stellaria media (STEME) (Stellaria media (STEME) [10]; dosage 1280 g/ha) [%] | Post-emergence action against Poa annua (POAAN) (Poa annua (POAAN) [11]; 320 g/ha) [%] | Post-emergence action against Poa annua (POAAN) (Poa annua (POAAN) [11]; 1280 g/ha) [%] | Post-emergence action against Veronica persica (VERPE) (Veronica persica (VERPE) [12]; dosage 320 g/ha) [%] | Post-emergence action against Veronica persica (VERPE) (Veronica persica (VERPE) [12]; dosage 1280 g/ha) [%] | other results
1 | Fc1cccc(Oc2ccc(Cl)cn2)c1-c1cc(C(F)F)on1 [Example 1-9] | very good herbicidal activity | very good herbicidal activity | 100 | 100 | 100 | 100 | 100 | 100 | 100 | 100 | 100 | 100 | 100 | 100 | 100 |  |  | Post-emergence action against Abutilon theophrasti (ABUTH) ([4]; 320 g/ha): 100%; Pre-emergence action against Matricaria inodora (MATIN) [5]: 90%; Pre-emergence action against Poa annua (POAAN) (Poa annua (POAAN) [6]; dosage 320 g/ha): 100%; Post-emergence action against Stellaria media (STEME) (Stellaria media (STEME) [8]; dosage 320 g/ha): 100%
2 | Fc1cccc(Oc2ncc(Cl)cc2Cl)c1-c1cc(C(F)(F)F)on1 [Example 1-4] | very good herbicidal activity | very good herbicidal activity |  |  |  |  |  | 100 |  | 90 |  |  |  |  |  |  |  | 
3 | Cn1nc(-c2cc(F)ccc2Oc2ccc(Cl)cn2)cc1C(F)F [Example 1-65] | very good herbicidal activity | very good herbicidal activity |  |  | 100 | 100 | 100 |  | 90 | 100 |  |  |  |  |  | 100 | 100 | 
4 | FC(F)c1cc(-c2ccc(Br)cc2Oc2ccc(Cl)cn2)on1 [Example 1-62] | very good herbicidal activity | very good herbicidal activity | 90 | 100 | 100 | 100 | 100 | 100 | 90 | 100 | 100 |  |  | 100 | 100 | 100 | 100 | Post-emergence action against Abutilon theophrasti (ABUTH) ([4]; 320 g/ha): 100%; Pre-emergence action against Poa annua (POAAN) (Poa annua (POAAN) [6]; dosage 320 g/ha): 90%; Pre-emergence action against Veronica persica (VERPE) (Veronica persica (VERPE) [13]): 90%; Pre-emergence action against Digitaria sanguinalis (DIGSA) [14]: 100%
5 | Fc1cccc(Oc2ncc(C(F)(F)F)cc2Cl)c1-c1cc(C(F)F)no1 [Example 1-22] | very good herbicidal activity | very good herbicidal activity |  | 100 | 100 |  |  |  |  | 100 | 90 | 90 | 100 | 100 | 100 |  |  | 
6 | Cc1ccc(-c2cc(C(F)F)no2)c(Oc2ncc(Cl)cc2Cl)c1 [Example 1-28] | very good herbicidal activity | very good herbicidal activity |  |  |  | 90 | 100 | 100 |  |  | 90 |  | 90 |  | 90 |  | 90 | Pre-emergence action against Setaria viridis (SETVI) (Setaria viridis (SETVI); dosage 320 g/ha): 90%
7 | Cc1ccc(-c2cc(C(F)F)no2)c(Oc2ncccc2F)c1 [Example 1-33] | very good herbicidal activity | very good herbicidal activity | 90 |  | 90 |  |  |  |  |  | 100 | 90 | 100 |  |  | 90 | 100 | Pre-emergence action against Veronica persica (VERPE) (Veronica persica (VERPE) [13]): 90%
8 | N#Cc1ccc(Oc2cccc(F)c2-c2cc(C(F)(F)F)on2)nc1 [Example 1-3] | very good herbicidal activity | very good herbicidal activity | 100 |  | 90 | 100 | 100 | 90 | 100 | 100 | 100 | 90 | 100 |  | 100 |  |  | Pre-emergence action against Abutilon theophrasti (ABUTH) ([3]; dosage 320 g/ha): 90%; Pre-emergence action against Matricaria inodora (MATIN) [5]: 90%; Pre-emergence action against Setaria viridis (SETVI) (Setaria viridis (SETVI); dosage 320 g/ha): 100%
